In patent US8754212B2, “Process for the preparation of stable, amorphous calcium salt of (6S)-N(5)-methyl-5,6,7,8-tetrahydrofolic acid” (Cerbios-Pharma S.A., priority 2007, dated 2014):
Like-named read-outs stand apart in the source and are kept apart here.

Assays:
[1] = stored at 4° C.
Text: For the determination of the purity and of the ratio of the diastereoisomers a sample of the compound of formula IV was washed with 94% (v/v) aqueous ethanol and was then dried under reduced pressure.

[2] = stored at 25° C. under vacuum [2 mbar]

| SMILES | HPLC purity (%) ([1]; time 0 months) | HPLC purity (%) ([1]; time 6 months) | HPLC assay (%) ([2]; time 0 months) | HPLC purity (%) ([2]; time 0 months) | HPLC assay (%) ([2]; time 1 month) | HPLC purity (%) ([2]; time 1 month) | HPLC assay (%) ([2]; time 2 months) | HPLC purity (%) ([2]; time 2 months) | HPLC assay (%) ([2]; time 3 months) | HPLC purity (%) ([2]; time 3 months) | HPLC assay (%) ([2]; time 6 months) | HPLC purity (%) ([2]; time 6 months) | HPLC assay (%) ([2]; time 9 months) | HPLC purity (%) ([2]; time 9 months) |
| --- | --- | --- | --- | --- | --- | --- | --- | --- | --- | --- | --- | --- | --- | --- |
| CN1c2c(nc(N)[nH]c2=O)NC[C@@H]1CNc1ccc(C(=O)N[C@@H](CCC(=O)O)C(=O)O)cc1 [formula IV, (6S)—N(5)-methyl-5,6,7,8-tetrahydrofolic acid] | 96.45 | 96.66 |  |  |  |  |  |  |  |  |  |  |  |  |
| CN1c2c(nc(N)[nH]c2=O)NC[C@@H]1CNc1ccc(C(=O)NC(CCC(=O)[O-])C(=O)[O-])cc1.[Ca+2] (stereo partly drawn) [formula V, calcium salt of (6S)—N(5)-methyl-5,6,7,8-tetrahydrofolic acid] |  |  | 99.0 | 98.7 | 98.8 | 98.7 | 99.8 | 98.9 | 100.2 | 98.8 | 99.9 | 98.5 | 100.7 | 98.9 |
